From ChEMBL document CHEMBL1133572, “Protease inhibitors: current status and future prospects” (J Med Chem, 2000)
Non-standard residues stand in square brackets, D forms with d. Residues, ends and D or L forms follow the SMILES beside them. *: point of attachment. Cbz = O=C(OCc1ccccc1)*; Dap = NC[C@H](N)C(=O)O

What was measured:
[1] = Oral bioavailability in dog; type: ADME, organism-based, Canis lupus familiaris; conditions: in vivo
[2] = Half life in dogs.; type: ADME, organism-based, Canis lupus familiaris; conditions: dog, in vivo
[3] = oral bioavailability in marmosets; type: ADME, organism-based; conditions: callithrix, in vivo, read-out: Bioavailabiility
Cathepsin D [4] = biological target: T1, Cathepsin D (Homo sapiens, UniProt P07339); experiment: Inhibitory concentration against human cathepsin D.
T1 sequence (P07339 65-162 limits assumed): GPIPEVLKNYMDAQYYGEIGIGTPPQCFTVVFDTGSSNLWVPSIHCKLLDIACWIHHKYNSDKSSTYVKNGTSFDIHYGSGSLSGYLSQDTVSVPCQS
T1 sequence (P07339 169-412 limits assumed): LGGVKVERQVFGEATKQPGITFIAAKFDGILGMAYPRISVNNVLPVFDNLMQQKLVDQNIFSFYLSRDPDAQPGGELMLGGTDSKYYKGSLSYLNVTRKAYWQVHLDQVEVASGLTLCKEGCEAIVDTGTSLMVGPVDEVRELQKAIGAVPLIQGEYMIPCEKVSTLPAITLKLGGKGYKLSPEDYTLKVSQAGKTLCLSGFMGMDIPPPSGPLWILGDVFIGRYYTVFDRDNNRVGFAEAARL

Renin = biological target: T2, Renin (Homo sapiens, UniProt P00797)
T2 sequence (P00797 whole entry): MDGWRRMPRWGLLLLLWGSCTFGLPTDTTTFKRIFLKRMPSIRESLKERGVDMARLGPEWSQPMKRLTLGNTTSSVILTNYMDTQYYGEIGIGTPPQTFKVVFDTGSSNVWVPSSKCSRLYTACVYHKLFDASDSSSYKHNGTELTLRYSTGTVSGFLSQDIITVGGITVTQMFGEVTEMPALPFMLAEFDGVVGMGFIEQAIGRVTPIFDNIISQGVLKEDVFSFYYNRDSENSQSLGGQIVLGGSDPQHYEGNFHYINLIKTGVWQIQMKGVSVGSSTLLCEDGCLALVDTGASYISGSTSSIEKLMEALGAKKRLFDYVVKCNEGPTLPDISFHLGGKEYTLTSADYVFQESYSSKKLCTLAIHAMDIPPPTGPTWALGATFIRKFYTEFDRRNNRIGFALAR

Pepsin A = Pepsin A (Sus scrofa, UniProt P00791); experiment: Inhibitory concentration against porcine pepsin
Chain of Pepsin A (P00791 whole entry): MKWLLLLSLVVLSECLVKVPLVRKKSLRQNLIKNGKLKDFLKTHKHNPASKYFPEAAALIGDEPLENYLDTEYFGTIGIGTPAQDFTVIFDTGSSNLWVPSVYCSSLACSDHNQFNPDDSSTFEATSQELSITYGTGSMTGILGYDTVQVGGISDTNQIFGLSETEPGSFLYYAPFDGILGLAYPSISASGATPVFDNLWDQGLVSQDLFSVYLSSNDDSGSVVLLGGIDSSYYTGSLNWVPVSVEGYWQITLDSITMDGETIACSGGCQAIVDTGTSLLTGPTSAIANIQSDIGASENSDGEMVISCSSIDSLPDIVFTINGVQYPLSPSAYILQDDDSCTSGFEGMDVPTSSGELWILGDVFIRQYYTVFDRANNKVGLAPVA

[5] = oral bioavailability in cynomolgus monkeys; type: ADME, organism-based, Macaca fascicularis; conditions: cynomolgus monkey, in vivo, read-out: Bioavailabiility
[6] = Oral bioavailability in rats at the dose of 10 mg/kg po; type: ADME, organism-based; conditions: rat, in vivo, read-out: Bioavailabiility
[7] = Cmax value in the period of 0-24 hr after dosing.; type: ADME, organism-based; conditions: in vivo
[8] = Tmax value of the compound; type: ADME
[9] = Plasma half life at the dose of 5 mg/kg iv.; type: ADME, organism-based; parameters: dose 5 mg/kg
[10] = biological target: T3, Human rhinovirus A protease (Human rhinovirus sp.) (UniProt Q4U254); experiment: The toxic concentration against Protease 3C
T3 sequence (whole entry): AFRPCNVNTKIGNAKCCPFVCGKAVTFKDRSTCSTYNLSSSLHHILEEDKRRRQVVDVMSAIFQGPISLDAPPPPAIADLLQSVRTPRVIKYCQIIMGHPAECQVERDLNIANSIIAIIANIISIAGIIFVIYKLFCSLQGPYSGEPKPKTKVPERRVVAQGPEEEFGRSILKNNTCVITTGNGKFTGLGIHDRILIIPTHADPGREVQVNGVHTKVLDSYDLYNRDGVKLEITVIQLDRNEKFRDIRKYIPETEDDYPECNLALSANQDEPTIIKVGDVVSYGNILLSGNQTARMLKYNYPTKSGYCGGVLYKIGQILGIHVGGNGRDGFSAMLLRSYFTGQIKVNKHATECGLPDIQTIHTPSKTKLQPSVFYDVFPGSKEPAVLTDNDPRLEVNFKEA

[11] = biological target: T4, Human rhinovirus A protease (Human rhinovirus sp., UniProt Q4U254)
T4 sequence (Q4U254 whole entry): T3 sequence (whole entry)

[12] = biological target: T4, Human rhinovirus A protease; remark: listed apart in the source
[13] = Partition coefficient (logP); type: physicochemical; conditions: octanol/water; read-out: logP
[14] = Binding affinity against plasmepsin; parameters: species or system Plasmodium falciparum
[15] = Inhibitory concentration against Aspartic proteases.
Cathepsin D [16] = biological target: T1, Cathepsin D; experiment: Inhibitory concentration against Human cathepsin D.
Neutrophil collagenase = Neutrophil collagenase (Homo sapiens, UniProt P22894); experiment: Inhibition of matrix metalloprotease-8 (MMP-8).
Chain of Neutrophil collagenase (P22894 whole entry): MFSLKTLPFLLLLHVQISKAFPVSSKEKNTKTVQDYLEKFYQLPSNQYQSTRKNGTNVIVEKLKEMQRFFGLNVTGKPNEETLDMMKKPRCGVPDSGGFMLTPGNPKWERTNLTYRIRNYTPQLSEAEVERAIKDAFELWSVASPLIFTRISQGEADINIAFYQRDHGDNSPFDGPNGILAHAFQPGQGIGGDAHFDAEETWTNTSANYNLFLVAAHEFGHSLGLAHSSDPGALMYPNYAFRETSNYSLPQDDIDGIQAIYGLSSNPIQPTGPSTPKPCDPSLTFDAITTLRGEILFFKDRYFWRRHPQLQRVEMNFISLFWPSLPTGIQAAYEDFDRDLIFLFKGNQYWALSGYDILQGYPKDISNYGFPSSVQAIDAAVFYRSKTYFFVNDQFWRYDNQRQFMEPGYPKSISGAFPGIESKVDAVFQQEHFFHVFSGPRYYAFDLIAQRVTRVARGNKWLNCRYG

[17] = biological target: Matrix metalloproteinase-9 (Homo sapiens, UniProt P14780)
Chain of Matrix metalloproteinase-9 (P14780 whole entry): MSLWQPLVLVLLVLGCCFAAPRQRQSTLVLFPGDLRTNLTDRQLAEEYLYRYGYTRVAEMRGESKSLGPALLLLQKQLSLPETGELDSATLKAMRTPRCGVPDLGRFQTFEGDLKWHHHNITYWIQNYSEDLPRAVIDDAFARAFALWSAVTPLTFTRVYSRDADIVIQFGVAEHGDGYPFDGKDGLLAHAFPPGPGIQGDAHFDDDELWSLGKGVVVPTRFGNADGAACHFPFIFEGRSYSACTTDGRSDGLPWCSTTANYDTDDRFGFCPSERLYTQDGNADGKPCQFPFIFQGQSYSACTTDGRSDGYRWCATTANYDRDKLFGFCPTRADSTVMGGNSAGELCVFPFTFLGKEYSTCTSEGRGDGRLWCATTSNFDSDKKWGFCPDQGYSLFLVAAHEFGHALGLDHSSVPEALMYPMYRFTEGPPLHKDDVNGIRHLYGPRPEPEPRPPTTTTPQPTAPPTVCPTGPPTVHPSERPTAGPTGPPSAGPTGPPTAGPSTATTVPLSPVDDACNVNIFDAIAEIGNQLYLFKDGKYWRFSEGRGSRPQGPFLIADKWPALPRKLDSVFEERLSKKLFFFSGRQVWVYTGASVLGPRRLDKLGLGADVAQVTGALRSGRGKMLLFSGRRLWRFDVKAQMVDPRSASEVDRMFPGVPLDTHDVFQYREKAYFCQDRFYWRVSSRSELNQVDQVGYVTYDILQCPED

[18] = biological target: 72 kDa type IV collagenase (Homo sapiens, UniProt P08253)
Chain of 72 kDa type IV collagenase (P08253 whole entry, the tested form may be a part): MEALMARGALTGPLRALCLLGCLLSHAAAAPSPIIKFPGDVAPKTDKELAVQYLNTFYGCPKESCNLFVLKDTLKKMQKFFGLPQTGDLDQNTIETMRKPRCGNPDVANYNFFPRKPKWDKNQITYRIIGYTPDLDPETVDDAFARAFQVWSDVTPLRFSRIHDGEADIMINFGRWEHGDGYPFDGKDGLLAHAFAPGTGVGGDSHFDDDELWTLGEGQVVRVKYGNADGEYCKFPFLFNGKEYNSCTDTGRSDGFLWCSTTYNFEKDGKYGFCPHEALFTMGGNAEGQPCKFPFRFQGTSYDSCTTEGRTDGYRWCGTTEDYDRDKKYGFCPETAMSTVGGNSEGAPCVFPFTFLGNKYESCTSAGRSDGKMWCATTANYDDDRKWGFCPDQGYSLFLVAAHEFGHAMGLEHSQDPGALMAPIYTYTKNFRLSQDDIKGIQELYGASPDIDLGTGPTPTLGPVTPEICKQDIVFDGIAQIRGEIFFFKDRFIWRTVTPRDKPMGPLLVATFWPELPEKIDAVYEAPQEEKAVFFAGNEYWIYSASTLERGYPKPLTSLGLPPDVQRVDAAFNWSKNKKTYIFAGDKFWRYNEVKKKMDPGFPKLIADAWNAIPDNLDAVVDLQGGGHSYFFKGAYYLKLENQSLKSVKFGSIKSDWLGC

[19] = biological target: T5, Disintegrin and metalloproteinase domain-containing protein 17 (Homo sapiens, UniProt P78536); experiment: Inhibitory activity against Tumor necrosis factor alpha-converting enzyme (TACE) with respect to matrix metalloprotease-1 (MMP-1).
T5 sequence (P78536 whole entry, the tested form may be a part): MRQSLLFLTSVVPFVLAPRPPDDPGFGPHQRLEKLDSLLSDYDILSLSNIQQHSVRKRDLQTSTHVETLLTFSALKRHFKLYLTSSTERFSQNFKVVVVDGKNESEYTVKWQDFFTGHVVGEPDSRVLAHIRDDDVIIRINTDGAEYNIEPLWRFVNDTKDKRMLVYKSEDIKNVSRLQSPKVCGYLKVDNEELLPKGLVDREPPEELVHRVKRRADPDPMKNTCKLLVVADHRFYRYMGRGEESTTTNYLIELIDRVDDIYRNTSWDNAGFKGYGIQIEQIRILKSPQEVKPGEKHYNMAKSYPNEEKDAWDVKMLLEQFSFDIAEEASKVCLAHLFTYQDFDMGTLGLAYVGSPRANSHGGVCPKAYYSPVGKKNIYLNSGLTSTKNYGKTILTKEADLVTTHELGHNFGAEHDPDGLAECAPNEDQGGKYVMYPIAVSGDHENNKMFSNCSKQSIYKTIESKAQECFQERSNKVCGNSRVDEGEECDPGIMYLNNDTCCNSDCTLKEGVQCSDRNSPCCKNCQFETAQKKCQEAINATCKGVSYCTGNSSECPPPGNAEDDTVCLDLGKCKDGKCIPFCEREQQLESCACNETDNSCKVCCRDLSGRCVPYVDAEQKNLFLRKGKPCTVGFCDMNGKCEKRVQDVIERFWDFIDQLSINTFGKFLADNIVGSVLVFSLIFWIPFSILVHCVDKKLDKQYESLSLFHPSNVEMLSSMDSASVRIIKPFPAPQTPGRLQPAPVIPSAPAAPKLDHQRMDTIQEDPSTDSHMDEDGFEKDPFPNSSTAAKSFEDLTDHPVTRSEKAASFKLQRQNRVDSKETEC

[20] = biological target: T5, Disintegrin and metalloproteinase domain-containing protein 17; experiment: Inhibition against Tumor necrosis factor alpha-converting enzyme (TACE) at 1 uM in human monocytes.; type: cell-based
[21] = Cmax value at the period of 800 mg po for every 8 hr.; type: ADME, organism-based; parameters: dose 800 mg, route oral; conditions: in vivo
Papain = Papain (Carica papaya, UniProt P00784); experiment: The apparent binding affinity against Papain; conditions: read-out: Ki app
Chain of Papain (P00784 whole entry): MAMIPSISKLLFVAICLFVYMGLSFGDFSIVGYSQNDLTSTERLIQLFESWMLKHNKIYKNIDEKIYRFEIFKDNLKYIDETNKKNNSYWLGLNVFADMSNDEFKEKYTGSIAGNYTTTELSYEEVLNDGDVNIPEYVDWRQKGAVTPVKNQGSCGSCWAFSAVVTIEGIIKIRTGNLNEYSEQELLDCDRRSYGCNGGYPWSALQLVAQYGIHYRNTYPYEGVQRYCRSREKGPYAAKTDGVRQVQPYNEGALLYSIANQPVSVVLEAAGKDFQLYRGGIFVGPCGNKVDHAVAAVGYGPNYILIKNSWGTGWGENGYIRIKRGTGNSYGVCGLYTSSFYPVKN

Cathepsin B = Cathepsin B (Homo sapiens, UniProt P07858)
Procathepsin L = Procathepsin L (Homo sapiens, UniProt P07711)
Chain of Procathepsin L (P07711 whole entry): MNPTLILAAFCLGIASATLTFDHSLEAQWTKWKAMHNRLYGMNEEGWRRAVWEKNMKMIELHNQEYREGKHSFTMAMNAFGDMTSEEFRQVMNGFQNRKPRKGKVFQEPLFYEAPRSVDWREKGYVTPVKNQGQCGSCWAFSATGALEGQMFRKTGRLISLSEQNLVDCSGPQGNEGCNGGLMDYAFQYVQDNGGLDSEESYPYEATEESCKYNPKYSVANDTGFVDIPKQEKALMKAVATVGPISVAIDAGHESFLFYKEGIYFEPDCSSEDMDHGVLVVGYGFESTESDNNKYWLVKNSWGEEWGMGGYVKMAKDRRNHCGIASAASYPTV

[22] = The inhibition against liver metastases at 100 ug/mL.; type: ADME, tissue-based
[23] = Cmax value of the compound; type: ADME, organism-based; conditions: in vivo
Enterovirus = experiment: Inhibitory activity against the different replication of HRV serotypes and related piocornaviruses A21 and B3, enterovirus 70 and echo virus 11; type: functional, organism-based

With `CNC1CCN(C(=O)C[C@@H](Cc2ccccc2)C(=O)N[C@@H](CSC)C(=O)N[C@@H](CC2CCCCC2)[C@@H](O)C(=O)OC(C)C)CC1` the bioavailability [1] was 60%, the half-life [2] was 2.4 h and the bioavailability [3] was 59%. For the same compound, the IC50 (Cathepsin D [4]) was 550 nM, the IC50 (Renin) was 4 nM and the IC50 (Pepsin A) was 2100 nM. The bioavailability [5] was greater than 27%.

With `CC(C)c1nc(CN(C)C(=O)N[C@H](C(=O)N[C@@H](Cc2ccccc2)C[C@H](O)[C@H](Cc2ccccc2)NC(=O)OCc2cncs2)C(C)C)cs1` [RITONAVIR] the bioavailability [6] was 78%, the Cmax [7] was 2.6 µM and the Tmax [8] was 2 h. For the same compound, the half-life [9] was 1.2 h.

With `CC(C)C[C@H](NC(=O)OCc1ccccc1)C(=O)N[C@@H](Cc1ccccc1)C(=O)N[C@H](C=O)CC(=O)N(C)C` (Cbz-Leu-Phe-Asp(NMe2)-aldehyde) the TC50 [10] was 63000 nM, the EC50 [11] was 1300 nM and the Ki [12] was 5 nM.

In the case of `COc1ccc(CCN(C[C@H](O)[C@H](Cc2ccccc2)NC(=O)COc2cccc(Cl)c2)C(=O)C2CCNCC2)cc1`, the logP [13] is reported as 3.71 and the Ki [14] is reported as 4.3 nM.

Compound `CC(C)C[C@H](NC(=O)[C@H](C)NC(=O)C[C@H](O)[C@H](Cc1ccccc1)NC(=O)[C@@H](NC(=O)c1ccccn1)C(C)C)C(N)=O` has an IC50 [15] of 0.56 nM and an IC50 (Cathepsin D [16]) of 21 nM.

Compound `CN1C(=O)N(C[C@H](C(=O)NO)[C@@H](CC2CCCC2)C(=O)N2CCCCC2)C(=O)C1(C)C` has a Ki (Neutrophil collagenase) of 4 nM, a Ki [17] of 59 nM and a Ki [18] of 154 nM.

In the case of `C#CCSC[C@H](C(=O)NO)[C@@H](CC(C)C)C(=O)N[C@@H](Cc1ccccc1)C(=O)NC`, the IC50 [19] is reported as greater than 10000 nM and the inhibition [20] is reported as 83%.

`CC(C)(C)NC(=O)[C@@H]1CN(Cc2cccnc2)CCN1C[C@@H](O)C[C@@H](Cc1ccccc1)C(=O)N[C@H]1c2ccccc2C[C@H]1O.O` gave a bioavailability ([1]; read-out: Bioavailabiility) of 90%, a Cmax [21] of 12 µM and a Tmax [8] of 1 h.

`CC(C)C[C@H](NC(=O)OCc1ccccc1)C(=O)NCC(=O)CNC(=O)[C@H](CC(C)C)NC(=O)OCc1ccccc1` showed a Ki (Papain) greater than 10000 nM, a Ki (Cathepsin B) of 1300 nM and a Ki (Procathepsin L) of 340 nM.

`CC(C)C[C@H](NC(=O)[C@H]1O[C@@H]1C(=O)O)C(=O)NCCCCN=C(N)N` [E-64] gave an Inhibition [22] of 90%.

Work on `COc1cc(C(C)C)c2c(c1)S(=O)(=O)N(COC(=O)c1c(Cl)ccc(OCCN3CCOCC3)c1Cl)C2=O` yielded a Cmax [23] of 470 ng/mL.

Work on `CC(=O)NC[C@@H](C=O)NC(=O)[C@H](Cc1ccccc1)NC(=O)[C@H](CC(C)C)NC(=O)OCc1ccccc1` (Cbz-Leu-Phe-[Dap](Ac)-aldehyde) yielded a Ki (Enterovirus) of 6 nM.
